These are literature values, as cited in US20240325432A1, “COMPOSITION AND METHODS OF TREATMENT USING TRANSDERMAL SUPPLEMENTATION” (Xygenyx Inc., priority 2023, published 2024).

Where only a bound is given, the exact number is not on record here.

Data set [1] has as its system markers of inflammation in the blood. Particulars: individuals with metabolic syndrome.
For data set [2] the following is noted: compared to α-tocopherol = 1.0.
The conditions of data set [3]: even when dietary intake occurs in equal portions.
The conditions of data set [4]: in vivo.
Data set [5] concerns F2-isoprostane. Particulars: 1600-3200 IU/day.
Data set [6] relates to wide dynamic range neurons in the ventroposterolateral nucleus of the thalamus. Particulars: believed.
For data set [7] the following is noted: as penetration enhancer.
Data set [8] relates to rheumatoid arthritis. Particulars: arthritic subjects.

With `Cc1cc(O)cc2c1O[C@](C)(CCC[C@H](C)CCC[C@H](C)CCCC(C)C)CC2` [δ-tocopherol], in data set [1], the “markers of inflammation in the blood” value is “reduced markers of inflammation”. Also, the relative biological activity in [2] is listed as 0.03.
With `Cc1c(O)cc2c(c1C)O[C@](C)(CCC[C@H](C)CCC[C@H](C)CCCC(C)C)CC2` [γ-tocopherol], the “concentration in vivo relative to α-tocopherol” value in data set [3] is reported as “roughly 10%”. In data set [2], the relative biological activity was 0.1.
As to “HGH: hormone comprising a peptide chain that is synthesized in the pituitary gland”, the biological half-life in [4] is on record as 10-20 minutes.
Regarding `Cc1c(C)c2c(c(C)c1O)CC[C@@](C)(CCC[C@H](C)CCC[C@H](C)CCCC(C)C)O2` [α-tocopherol], the “blood plasma concentration of F2-isoprostane” value in data set [5] is listed as “significantly lower”. The “reduction in the development of age-related cataracts” value (400-500 IU in combination with 10-20 mg β-carotene and 400-500 mg vitamin C) was 23%. Also, the “reduction of risk of coronary disease” value (dietary supplementation, doses up to 400 IU/day) was “up to 34%”. Further, for the setting “dietary supplementation, doses up to 400 IU/day, controlled trials”, the “reduction of risk of developing neurodegenerative diseases (Alzheimer's Syndrome or dementia)” value is reported as at most 24%. The relative biological activity in data set [2] is 1.0.
With `CCCCCc1cc(O)c2c(c1)OC(C)(C)C1CCC(C)=CC21` (stereo not drawn) [THC, Δ-9-tetrahydrocannabinol], the “analgesic power relative to morphine” value in [6] is listed as “ten times more powerful than morphine”.
For `CC(C)[C@@H]1CC[C@@H](C)C[C@H]1O` [Menthol], the “increase of transdermal drug uptake (factor)” value in [7] is at least 10.
Regarding `CC12CCC(CC1)C(C)(C)O2` [eucalyptol, 1,8-epoxy-p-menthane], the “increase of transdermal drug uptake (factor)” value in data set [7] is “more than 10”.
On to `Cc1cc(O)c(C)c2c1O[C@](C)(CCC[C@H](C)CCC[C@H](C)CCCC(C)C)CC2` [β-tocopherol], for which the relative biological activity in data set [2] is recorded as 0.5.
For `C=C1CC/C=C(\C)CC[C@@H]2[C@@H]1CC2(C)C` [β-caryophyllene], in [8], the “swelling of joints and lymph nodes” value was “reduced swelling of joints and lymph nodes”.
